This is an account of results in patent US20120172384A1, “HETEROCYCLYLAMINOPYRIMIDINES AS KINASE INHIBITORS” (priority 2009, published 2012).

One assay relates to organ transplantation. To be noted: Changelian et al., 2003; cited from earlier work.
Assay [1] deals with rheumatoid arthritis. To be noted: rheumatoid arthritis (Weinblatt et al., 2008); cited from earlier work.
In assay [2] the test system is rheumatoid arthritis. To be noted: animal model of rheumatoid arthritis (Pine et al., 2007); cited from earlier work.
For a further assay, the target named is T1, ZAP-70 (Homo sapiens, UniProt P43403).
T1 construct: endogenous in cells
T1 sequence (P43403 1-619): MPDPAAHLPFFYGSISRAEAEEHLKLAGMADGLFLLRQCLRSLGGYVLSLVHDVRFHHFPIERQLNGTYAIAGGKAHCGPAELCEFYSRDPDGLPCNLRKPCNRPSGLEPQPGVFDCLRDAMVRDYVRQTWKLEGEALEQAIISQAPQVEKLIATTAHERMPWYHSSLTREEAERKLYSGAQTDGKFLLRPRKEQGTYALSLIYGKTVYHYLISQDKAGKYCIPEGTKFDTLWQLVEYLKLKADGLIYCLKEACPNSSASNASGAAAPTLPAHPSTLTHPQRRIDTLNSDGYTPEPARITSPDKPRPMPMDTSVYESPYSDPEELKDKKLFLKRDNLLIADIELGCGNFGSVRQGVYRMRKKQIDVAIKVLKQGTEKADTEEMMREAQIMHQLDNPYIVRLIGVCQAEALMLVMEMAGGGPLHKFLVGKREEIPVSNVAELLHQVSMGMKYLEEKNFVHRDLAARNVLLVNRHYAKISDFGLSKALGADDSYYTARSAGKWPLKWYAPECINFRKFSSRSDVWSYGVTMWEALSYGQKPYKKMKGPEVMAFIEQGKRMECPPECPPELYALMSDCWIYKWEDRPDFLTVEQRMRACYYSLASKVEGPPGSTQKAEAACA
Description: ZAP-70 kinobeads assay. The format is binding. The conditions noted are these: cell lysate, dot blot with ZAP-70 antibody.

The target of the next assay is T2, JAK3 (Homo sapiens, UniProt P52333).
T2 construct: endogenous in cells
T2 sequence (P52333 1-1124): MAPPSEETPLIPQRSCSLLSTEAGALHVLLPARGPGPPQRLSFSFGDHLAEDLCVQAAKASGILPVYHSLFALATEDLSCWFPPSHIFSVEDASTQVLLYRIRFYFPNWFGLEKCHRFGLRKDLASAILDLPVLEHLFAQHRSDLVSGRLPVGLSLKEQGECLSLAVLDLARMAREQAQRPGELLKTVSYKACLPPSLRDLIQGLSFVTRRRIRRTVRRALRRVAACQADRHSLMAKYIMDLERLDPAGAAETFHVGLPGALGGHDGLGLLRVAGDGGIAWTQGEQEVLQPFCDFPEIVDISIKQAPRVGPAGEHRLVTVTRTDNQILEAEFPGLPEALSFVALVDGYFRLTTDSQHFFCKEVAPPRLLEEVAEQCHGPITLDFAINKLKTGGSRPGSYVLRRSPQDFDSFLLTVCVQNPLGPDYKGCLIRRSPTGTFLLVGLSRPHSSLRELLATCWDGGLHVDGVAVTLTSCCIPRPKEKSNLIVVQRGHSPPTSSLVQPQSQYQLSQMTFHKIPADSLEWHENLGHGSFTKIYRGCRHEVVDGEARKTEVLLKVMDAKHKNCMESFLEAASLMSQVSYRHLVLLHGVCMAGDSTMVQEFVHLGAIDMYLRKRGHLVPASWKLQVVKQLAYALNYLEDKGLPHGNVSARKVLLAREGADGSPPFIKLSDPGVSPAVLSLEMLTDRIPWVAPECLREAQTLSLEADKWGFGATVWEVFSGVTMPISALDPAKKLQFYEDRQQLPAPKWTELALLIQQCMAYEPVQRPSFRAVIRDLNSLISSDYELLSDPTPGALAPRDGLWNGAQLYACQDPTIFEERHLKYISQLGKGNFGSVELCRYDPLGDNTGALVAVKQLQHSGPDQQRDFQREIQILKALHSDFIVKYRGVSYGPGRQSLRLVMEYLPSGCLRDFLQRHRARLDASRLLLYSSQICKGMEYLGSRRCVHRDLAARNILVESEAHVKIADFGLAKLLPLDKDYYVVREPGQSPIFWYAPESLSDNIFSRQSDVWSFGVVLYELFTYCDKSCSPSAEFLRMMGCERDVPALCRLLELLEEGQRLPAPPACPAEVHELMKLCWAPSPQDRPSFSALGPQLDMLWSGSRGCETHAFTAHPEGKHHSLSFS
The experiment in a line: JAK3 kinobeads assay. To be noted: cell lysate, dot blot with JAK3 specific antibody. The format is binding. The method, boiled down:
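In this competition pulldown, test compounds at various concentrations were incubated in cell lysate together with beads carrying an immobilized aminopyrido-pyrimidine ligand. Bead-bound proteins were eluted, and JAK3 was quantified by dot blot with a JAK3-specific antibody and infrared detection.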

On to `C[C@@H]1CCN(C(=O)CC#N)C[C@@H]1N(C)c1ncnc2[nH]ccc12` [CP-690,550], for which the “efficacy in animal model of organ transplantation” value in the assay on organ transplantation is recorded as “show efficacy”.

Regarding `COc1cc(Nc2ncc(F)c(Nc3ccc4c(n3)N(COP(=O)(O)O)C(=O)C(C)(C)O4)n2)cc(OC)c1OC` [Example R788], the “efficacy in clinical study” value in the assay with rheumatoid arthritis [1] is recorded as “demonstrated efficacy”.

For `COc1cc(Nc2ncc(F)c(Nc3ccc4c(n3)NC(=O)C(C)(C)O4)n2)cc(OC)c1OC` [Example R406], the “inflammation and bone erosion” value with rheumatoid arthritis [2] is “suppresses inflammation and bone erosion”.

Regarding `Cc1cc(Nc2ncc(Cl)c(Nc3ccccc3NS(C)(=O)=O)n2)nn1C` [Example 39, N-(2-(5-chloro-2-(1,5-dimethyl-1H-pyrazol-3-ylamino)pyrimidin-4-ylamino)phenyl)methanesulfonamide], the half-inhibitory concentration (IC50) against ZAP-70 is 100 to 1000 nM; on JAK3, ≤ 100 nM.

As to `COCCn1nc(C)cc1Nc1ncc(Cl)c(Nc2ccc(OC)cc2NS(C)(=O)=O)n1` [Example 96, N-(2-((5-chloro-2-((1-(2-methoxyethyl)-3-methyl-1H-pyrazol-5-yl)amino)pyrimidin-4-yl)amino)-5-methoxyphenyl)methanesulfonamide], the 50% inhibitory concentration (IC50) at ZAP-70 fell in the range of 100 to 1000 nM; against JAK3, 1000 to 10000 nM.

As for `CC(C)n1ccc(Nc2ncc(Cl)c(Nc3ccccc3NS(C)(=O)=O)n2)n1` [Example 40, N-(2-(5-chloro-2-(1-isopropyl-1H-pyrazol-3-ylamino)pyrimidin-4-ylamino)phenyl)methanesulfonamide], the figures for the half-maximal inhibitory concentration (IC50) against ZAP-70 and on JAK3 were 100 to 1000 nM and ≤ 100 nM, respectively.

As for `Cn1cc(Nc2ncc(Cl)c(Nc3ccccc3NS(C)(=O)=O)n2)cn1` [Example 20, N-(2-(5-chloro-2-(1-methyl-1H-pyrazol-4-ylamino)pyrimidin-4-ylamino)phenyl)methanesulfonamide], the IC50 is 100 to 1000 nM at ZAP-70 and ≤ 100 nM against JAK3.
